The text below walks through data of patent US10562902B2, “IRAK4 inhibitor and use thereof” (BEIJING HANMI PHARMACEUTICAL CO., LTD., priority 2015, dated 2020).

In this assay the target is IRAK4 kinase (Homo sapiens (Human), UniProt Q9NWZ3). Nature of the assay: IRAK4 kinase activity inhibition assay. Type of assay: biochemical. Particulars: ADP-Glo kinase assay, 10 μM ATP, MBP substrate. Here is the method: IRAK4 kinase (purchased from Life Technologies, Cat. No.: PR5612U) was diluted to 2 folds of the final concentration (the final concentration is […]) with reaction buffer (40 mM Tris-HC1, pH 7.5; 20 mM MgCl2; 0.1 mg/mL BSA; 1 mM DTT), and added to a 384-well plate at 5 μL/well. The test drugs were 10-fold serial diluted from 10 μM to set six concentration points and added to the test wells of the 384-well plate at 2.5 μL/well. After incubation for 10 min at 25° C., 10 μM of ATP and 0.1 μg/μL of an enzyme reaction substrate, myelin basic protein MBP (purchased from Signal Chem, Cat. No.: M42-51N) were added at 2.5 μL/well, and reacted at 25° C. for 60 minutes. After the reaction was completed, the kinase activity assay was performed using the ADP-Glo™ kinase assay kit (purchased from Promega, Cat. No.: V9102) according to the manufacture's instruction, i.e., 10 μL of ADP-Glo reaction reagent was first added and reacted at 25° C. for 40 minutes, 10 μL of the reaction mixture was taken and mixed with 10 μL of ADP-Glo detection reagent, and reacted at 25° C. for 30 minutes. The kinase activity was then detected, and the IC50 values of the test drugs were calculated.
IRAK4 kinase, sequence (Q9NWZ3 whole entry): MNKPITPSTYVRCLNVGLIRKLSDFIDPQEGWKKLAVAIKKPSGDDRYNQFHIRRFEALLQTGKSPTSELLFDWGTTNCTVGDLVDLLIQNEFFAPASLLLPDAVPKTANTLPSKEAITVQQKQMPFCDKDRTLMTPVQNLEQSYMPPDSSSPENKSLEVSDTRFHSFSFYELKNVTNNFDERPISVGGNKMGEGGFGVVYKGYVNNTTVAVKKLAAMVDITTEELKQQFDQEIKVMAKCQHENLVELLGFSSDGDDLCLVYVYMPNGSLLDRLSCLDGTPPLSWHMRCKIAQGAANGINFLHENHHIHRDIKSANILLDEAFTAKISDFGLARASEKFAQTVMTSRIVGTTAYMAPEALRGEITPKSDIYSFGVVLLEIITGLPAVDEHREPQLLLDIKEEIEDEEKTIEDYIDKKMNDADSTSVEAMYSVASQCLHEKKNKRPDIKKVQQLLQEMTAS
Background: In ADP-Glo the light output rises with the ADP produced.

Structures are written as SMILES. pIC50: −log10 of the molar value.

`Cc1cc(Nc2nc(N[C@H]3CC[C@H](O)CC3)c3c(ccn3-c3cnn(C)c3)n2)sn1` [Example 1, trans-4-[2-(3-methylisothiazol-5-ylamino)-5-(1-methyl-1H-pyrazol-4-yl)-5H-pyrrolo[3,2-d]pyrimidin-4-ylamino]cyclohexanol] gave a pIC50 of at least 7.00. To `Cc1cc(Nc2nc(NC(C)C)c3c(ccn3-c3cnn(C)c3)n2)sn1` [Example 2] belongs at least 7.00; to `Cc1cc(Nc2nc(NCCO)c3c(ccn3-c3cnn(C)c3)n2)sn1` [Example 3], 6.00 to 7.00. Compound `Cc1cc(Nc2nc(NCCCO)c3c(ccn3-c3cnn(C)c3)n2)sn1` [Example 4] showed a pIC50 of at least 7.00. To `Cc1cc(Nc2nc(NCCCCO)c3c(ccn3-c3cnn(C)c3)n2)sn1` [Example 5] belongs at least 7.00; to `CNC(=O)CCNc1nc(Nc2cc(C)ns2)nc2ccn(-c3cnn(C)c3)c12` [Example 6], 6.00 to 7.00; to `CNC(=O)CCCNc1nc(Nc2cc(C)ns2)nc2ccn(-c3cnn(C)c3)c12` [Example 7], 6.00 to 7.00. In turn, `CC(=O)NCCNc1nc(Nc2cc(C)ns2)nc2ccn(-c3cnn(C)c3)c12` [Example 8] gave a negative-log IC50 (pIC50) of 6.00 to 7.00. Consider `CC(=O)NCCCNc1nc(Nc2cc(C)ns2)nc2ccn(-c3cnn(C)c3)c12` [Example 9], for which the pIC50 was 6.00 to 7.00. To `Cc1cc(Nc2nc(NCCN3CCOCC3)c3c(ccn3-c3cnn(C)c3)n2)sn1` [Example 10] belongs 6.00 to 7.00; to `Cc1cc(Nc2nc(NCCCN3CCOCC3)c3c(ccn3-c3cnn(C)c3)n2)sn1` [Example 11], 6.00 to 7.00; to `Cc1cc(Nc2nc(NC3CCC3)c3c(ccn3-c3cnn(C)c3)n2)sn1` [Example 12], 6.00 to 7.00. Regarding `Cc1cc(Nc2nc(NC3CC(O)C3)c3c(ccn3-c3cnn(C)c3)n2)sn1` (stereo not drawn) [Example 13], the negative-log IC50 (pIC50) is at least 7.00.

`Cc1cc(Nc2nc(N[C@H]3C[C@@](C)(O)C3)c3c(ccn3-c3cnn(C)c3)n2)sn1` [Example 14]: the pIC50 is at least 7.00. As to `Cc1cc(Nc2nc(N[C@H]3C[C@@H](N4CCCCC4)C3)c3c(ccn3-c3cnn(C)c3)n2)sn1` [Example 15], the pIC50 is 6.00 to 7.00. `Cc1cc(Nc2nc(N[C@H]3C[C@H](N4CCCCC4)C3)c3c(ccn3-c3cnn(C)c3)n2)sn1` [Example 16] showed a pIC50 of 6.00 to 7.00.

`Cc1cc(Nc2nc(NC3CCCC3)c3c(ccn3-c3cnn(C)c3)n2)sn1` [Example 17] had a negative logarithm of the IC50 (pIC50) of 6.00 to 7.00. To `Cc1cc(Nc2nc(N[C@H]3CC[C@@H](O)C3)c3c(ccn3-c3cnn(C)c3)n2)sn1` [Example 18] belongs at least 7.00; to `Cc1cc(Nc2nc(N[C@@H]3C[C@H](CO)[C@@H](O)[C@H]3O)c3c(ccn3-c3cnn(C)c3)n2)sn1` [Example 19], at least 7.00; to `Cc1cc(Nc2nc(N[C@@H]3CCOC3)c3c(ccn3-c3cnn(C)c3)n2)sn1` [Example 20], 6.00 to 7.00.

Take `Cc1cc(Nc2nc(N[C@H]3CCOC3)c3c(ccn3-c3cnn(C)c3)n2)sn1` [Example 21]: the pIC50 is 6.00 to 7.00. To `Cc1cc(Nc2nc(NC3CCCCC3)c3c(ccn3-c3cnn(C)c3)n2)sn1` [Example 22] belongs 6.00 to 7.00; to `Cc1cc(Nc2nc(NC3CCC(=O)CC3)c3c(ccn3-c3cnn(C)c3)n2)sn1` [Example 23], 6.00 to 7.00. For `Cc1cc(Nc2nc(N[C@H]3CC[C@](C)(O)CC3)c3c(ccn3-c3cnn(C)c3)n2)sn1` [Example 24], the pIC50 is 6.00 to 7.00. As for `CO[C@H]1CC[C@@H](Nc2nc(Nc3cc(C)ns3)nc3ccn(-c4cnn(C)c4)c23)CC1` [Example 25], the negative logarithm of the IC50 (pIC50) was 6.00 to 7.00. To `CO[C@H]1CC[C@H](Nc2nc(Nc3cc(C)ns3)nc3ccn(-c4cnn(C)c4)c23)CC1` [Example 26] belongs at least 7.00; to `CC(=O)N[C@H]1CC[C@H](Nc2nc(Nc3cc(C)ns3)nc3ccn(-c4cnn(C)c4)c23)CC1` [Example 27], 6.00 to 7.00; to `Cc1cc(Nc2nc(N[C@H]3CC[C@H](N4CCCCC4)CC3)c3c(ccn3-c3cnn(C)c3)n2)sn1` [Example 28], 6.00 to 7.00. For `Cc1cc(Nc2nc(NC3CCOCC3)c3c(ccn3-c3cnn(C)c3)n2)sn1` [Example 29], the pIC50 was at least 7.00. To `Cc1cc(Nc2nc(NC3CCN(C)CC3)c3c(ccn3-c3cnn(C)c3)n2)sn1` [Example 30] belongs 6.00 to 7.00; to `CNC(=O)c1ccc(Nc2nc(Nc3cc(C)ns3)nc3ccn(-c4cnn(C)c4)c23)cc1` [Example 31], 6.00 to 7.00. The compound `Cc1cc(Nc2nc(NC(C)C)c3c(ccn3-c3cnn(C4CCOCC4)c3)n2)sn1` [Example 32] gave a pIC50 of 6.00 to 7.00. To `Cc1cc(Nc2nc(N[C@H]3CC[C@H](O)CC3)c3c(ccn3-c3ccccc3)n2)sn1` [Example 33] belongs 6.00 to 7.00; to `Cc1cc(Nc2nc(N[C@H]3CC[C@H](O)CC3)c3c(ccn3-c3ccc(F)cc3)n2)sn1` [Example 34], 6.00 to 7.00; to `Cc1cc(Nc2nc(NC(C)C)c3c(ccn3-c3cccc(C(=O)O)c3)n2)sn1` [Example 35], 5.00 to 6.00.

The compound `Cc1cc(Nc2nc(NC(C)C)c3c(ccn3-c3cccc(S(C)(=O)=O)c3)n2)sn1` [Example 36] had a negative-log IC50 (pIC50) of 5.00 to 6.00.

For the compound `Cc1cc(Nc2nc(NC(C)C)c3c(ccn3-c3cccnc3)n2)sn1` [Example 37], the negative logarithm of the IC50 (pIC50) was 6.00 to 7.00.

`Cc1cc(Nc2nc(N[C@H]3CC[C@H](O)CC3)c3c(ccn3-c3cccnc3)n2)sn1` [Example 38] gave a pIC50 of at least 7.00. `Cc1cc(Nc2nc(NC(C)C)c3c(ccn3-c3ccc(N)nc3)n2)sn1` [Example 39]: the pIC50 is 5.00 to 6.00. Regarding `Cc1cc(Nc2nc(NC3CCOCC3)c3c(ccn3-c3ccncc3)n2)sn1` [Example 40], the negative-log IC50 (pIC50) is 6.00 to 7.00.

Turning to `Cc1cc(Nc2nc(NC(C)C)c3c(ccn3-c3ccnc(O)c3)n2)sn1` [Example 41], the pIC50 is 6.00 to 7.00. To `COc1cc(-n2ccc3nc(Nc4cc(C)ns4)nc(NC(C)C)c32)ccn1` [Example 42] belongs 6.00 to 7.00; to `Cc1cc(Nc2nc(NC(C)C)c3c(ccn3-c3ccc4c(c3)OCO4)n2)sn1` [Example 43], 6.00 to 7.00.

In turn, `Cc1cc(Nc2nc(NC(C)C)c3c(ccn3-c3cccc4c3cnn4C)n2)sn1` [Example 44] showed a pIC50 of 5.00 to 6.00. To `CC(C)Nc1nc(Nc2cnn(C3CCCCC3)c2)nc2ccn(-c3cnn(C)c3)c12` [Example 45, N^2-(1-cyclohexyl-1H-pyrazol-4-yl)-N^4-isopropyl-5-(1-methyl-1H-pyrazol-4-yl)-5H-pyrrolo[3,2-d]pyrimidin-2,4-diamine] belongs 6.00 to 7.00. Turning to `Cn1cc(Nc2nc(N[C@H]3CC[C@H](O)CC3)c3c(ccn3-c3cnn(C)c3)n2)cn1` [Example 46], the negative-log IC50 (pIC50) was 6.00 to 7.00. Turning to `CC(C)Nc1nc(Nc2cnn(C3CCOCC3)c2)nc2ccn(-c3cnn(C)c3)c12` [Example 47], the negative-log IC50 (pIC50) was 6.00 to 7.00. The compound `CCNC(=O)c1csc(Nc2nc(NC3CCOCC3)c3c(ccn3-c3cnn(C)c3)n2)c1` [Example 49] showed a negative logarithm of the IC50 (pIC50) of at least 7.00. Regarding `CN(C)C(=O)c1csc(Nc2nc(NC3CCOCC3)c3c(ccn3-c3cnn(C)c3)n2)c1` [Example 50], the negative-log IC50 (pIC50) is 6.00 to 7.00.

As to `CNC(=O)c1cc(Nc2nc(NC3CCOCC3)c3c(ccn3-c3cnn(C)c3)n2)cs1` [Example 51], the pIC50 is at least 7.00. Take `CN(C)C(=O)c1cc(Nc2nc(NC3CCOCC3)c3c(ccn3-c3cnn(C)c3)n2)cs1` [Example 52]: the pIC50 is 6.00 to 7.00.

On to `Cc1cc(Nc2nc(N(C)C3CCOCC3)c3c(ccn3-c3cnn(C)c3)n2)sn1` [Example 53, N^4-methyl-N^2-(3-methylisothiazol-5-yl)-5-(1-methyl-1H-pyrazol-4-yl)-N^4-(tetrahydropyran-4-yl)-5H-pyrrolo[3,2-d]pyrimidine-2,4-diamine], for which the pIC50 is 6.00 to 7.00.

Consider `Cc1cc(Nc2nc(OC(C)C)c3c(ccn3-c3cnn(C)c3)n2)sn1` [Example 54, [4-isopropoxy-5-(1-methyl-1H-pyrazol-4-yl)-5H-pyrrolo[3,2-d]pyrimidin-2-yl]-(3-methylisothiazol-5-yl)amine], for which the pIC50 was at least 7.00. To `COCCOc1nc(Nc2cc(C)ns2)nc2ccn(-c3cnn(C)c3)c12` [Example 55] belongs at least 7.00; to `COCC(C)Oc1nc(Nc2cc(C)ns2)nc2ccn(-c3cnn(C)c3)c12` (stereo not drawn) [Example 56], 6.00 to 7.00. To `COCCCOc1nc(Nc2cc(C)ns2)nc2ccn(-c3cnn(C)c3)c12` [Example 57] belongs 6.00 to 7.00; to `Cc1cc(Nc2nc(OCC3CCOC3)c3c(ccn3-c3cnn(C)c3)n2)sn1` (stereo not drawn) [Example 58], 6.00 to 7.00; to `Cc1cc(Nc2nc(OCc3ccccn3)c3c(ccn3-c3cnn(C)c3)n2)sn1` [Example 59], 6.00 to 7.00. Turning to `Cc1cc(Nc2nc(OC3CCC3)c3c(ccn3-c3cnn(C)c3)n2)sn1` [Example 60], the negative-log IC50 (pIC50) was 6.00 to 7.00. With `Cc1cc(Nc2nc(OC3COC3)c3c(ccn3-c3cnn(C)c3)n2)sn1` [Example 61], the pIC50 was at least 7.00. The compound `Cc1cc(Nc2nc(OC3CC(N4CCCCC4)C3)c3c(ccn3-c3cnn(C)c3)n2)sn1` (stereo not drawn) [Example 62] showed a pIC50 of at least 7.00. To `Cc1cc(Nc2nc(OC3CCCC3)c3c(ccn3-c3cnn(C)c3)n2)sn1` [Example 63] belongs 6.00 to 7.00; to `Cc1cc(Nc2nc(O[C@@H]3CCOC3)c3c(ccn3-c3cnn(C)c3)n2)sn1` [Example 65], at least 7.00.

As usually defined, the pIC50 is −log10 of the IC50, conventionally taken in molar units. Read a high pIC50 as a small IC50.
